# Where “and” joins values, the source holds several entries; their conditions need not be identical. Equal values may be shown once.
# Assays:
# [1] = test system: E. coli; assay: MIC by broth microdilution (CLSI) against E. coli; format: cell-based, Escherichia coli
# Description: (§1) MIC tests were performed by broth microdilution in-line with CLSI susceptibility testing standards ([20], [21]) either in-house or at IHMA (Europe and USA) or JMI Laboratories using cation-adjusted Mueller Hinton Broth.
# [2] = test system: K. pneumoniae; assay: MIC by broth microdilution (CLSI) against K. pneumoniae; format: cell-based, Klebsiella pneumoniae
# Description: as §1
# [3] = Cytotoxicity assay, positive control (cell line not stated); format: cell-based; conditions: human
# [4] = test system: two respiratory isolates (carrying NDM-5 and TEM-OSBL) from Russia in 2019; conditions: both isolates, reported to be resistant to cefiderocol; cited from earlier work
# [5] = 15 clinical MDR NDM isolates (NDM-1, NDM-4, NDM-5) from India (2018)
# [6] = 100 MDR clinical isolates incl. ESBL and CRE
molecule,measurement,setting,value
Colistin [reference compound],MIC Range E. coli (NDM),[1]; [5],0.5 to 1 µg/mL
same,MIC50 E. coli,[1]; [6],0.5 µg/mL
same,MIC90 E. coli,[1]; [6],0.5 µg/mL
same,MIC range E. coli,[1]; [6],0.25 to 8 µg/mL
same,MIC,"[1]; E. coli NCTC 13441 (UPEC, MDR, CTX-M-15 ESBL)",0.16 µM and 0.18 µg/mL
same,MIC Range K. pneumoniae (NDM),[2]; [5],1 to 32 µg/mL
same,MIC50 K. pneumoniae,[2]; [6],0.5 µg/mL
same,MIC90 K. pneumoniae,[2]; [6],16 µg/mL
same,MIC,"[2]; K. pneumoniae NCTC 13438 (MDR, Class A KPC)",1.56 µM and 1.80 µg/mL
CSc1ccc2c(c1)N(CCC1CCCCN1C)c1ccccc1S2 (centres unmarked) [Thioridazine],IC50 at 24 h,[3],22.1 µM and 8.19 µg/mL
CC(C)(O/N=C(\C(=O)N[C@@H]1C(=O)N2C(C(=O)[O-])=C(C[N+]3(CCNC(=O)c4ccc(O)c(O)c4Cl)CCCC3)CS[C@H]12)c1csc(N)n1)C(=O)O [cefiderocol],MIC,[4],> 64 µg/mL

# — publication PMC10777851, “SMT-738: a novel small-molecule inhibitor of bacterial lipoprotein transport targeting Enterobacteriaceae” (Antimicrobial Agents and Chemotherapy, 2023)
